Literature values in patent US20200308169A1, “HETEROCYCLIC COMPOUNDS AS ANTIBACTERIALS” (JANSSEN SCIENCES IRELAND UNLIMITED COMPANY, priority 2016, published 2020).
In brackets after ≈: the same amount, converted by molar mass.

How the values were obtained:
M. tuberculosis H37Rv = details: strain H37Rv, inside macrophages
[1] = tested on: replicating and non-replicating bacteria; details: both replicating and non-replicating bacteria

CCc1nc2ccc(Cl)cn2c1C(=O)NCc1ccc(N2CCC(c3ccc(OC(F)(F)F)cc3)CC2)cc1 [Q203]
MIC50 (M. tuberculosis H37Rv): 0.28 nM (≈ 0.156 ng/mL) | activity against replicating and non-replicating bacteria [1]: highly active
